This note sets out measurements from US20260286370A1, “METHODS FOR RAPID AGROBACTERIUM-MEDIATED SUNFLOWER STABLE TRANSFORMATION” (SYNGENTA CROP PROTECTION AG, priority 2023, published 2026).

Holding throughout (assay type): in vivo, Helianthus annuus
In assay [1] the test system is sunflower explants. As to the kind of experiment: Transformation efficiency with different cytokinin in germination medium (Protocol V2). The following applies: variety F75400; for No. resistant shoot: hormone in germination medium: TDZ 4 mg/L (68 explants), BAP 5 mg/L (71 explants); for # of Resistant plants with GFP / Rate of resistant plants with GFP (%) / Resistant shoot rate: hormone in germination medium: TDZ 4 mg/L, BAP 5 mg/L. From the text: Adding different cytokinin into germination medium can improve shoot induction rate and TF. The resistant plantlets were generated with normal shoots and roots, which was further confirmed by visualizing green fluorescent protein expression (GFP). (Experiment alias: SF-52-SP-24545, SF-66-SP-24545, SF-81-SP-24545; variety: F75400).

In assay [2] the test system is sunflower cotyledon explants. As to the kind of experiment: Shoot induction rate of cotyledon explants with different plant hormone (conventional process). The following applies: conventional in vitro process. As to the method: The most efficient regeneration and transformation system reported using cotyledon as explants was evaluated.
The subject of assay [3] is sunflower explants. As to the kind of experiment: Transformation frequency by selection system (aadA or ALS selectable marker). The following applies: substance used as selection agent (aadA marker for spectinomycin, ALS marker for bensulfuron-methyl). From the text: As the Examples indicate, multiple transgenic-shoot structures were induced from infected explant tissues. Then the explants were shortly selected on selection media with selection agent (7-14 days, Spectinomycin as selection agent) and transplanted into soil to allow shoot and root development under controlled conditions (in growth chamber). From multiple experiments, transgenic events were successfully generated with aadA or ALS as selectable markers (spectinomycin and bensulfuron-methyl as selection agents respectively). The transformation frequency (TF) is 8.2% for spectinomycin selection, and 3.6% for bensulfuron-methyl selection system.

The subject of assay [4] is sunflower explants. Put plainly: Resistant frequencies with different concentration of spectinomycin in selection medium (Protocol V2). The following applies: F75400. As to the method:
Transformed sunflower explants was transferred onto regeneration media by inserting cotyledon with meristem region into solid medium with a selection agent. Hypocotyl was left untouching the medium. The hypocotyl was covered with sterilized matrix and put the jar in 22° C., 16/8 h light/dark. The regeneration step lasted for 7-14 days. Specifically, after co-culture, the mature seeds were placed on regeneration medium as follows: cotyledon/meristem region was inserted into solid medium with a selection agent (100 mg/L spectinomycin), the hypocotyl was left upside (the whole seeds were upside down); the container was covered with sterilized matrix (soil mixture) and placed in growth chamber for inducing shooting and rooting simultaneously under short time selection (7-14 days).
Selection medium with spectinomycin 100-800 mg/L was tested. The resistant plantlets are generated with normal shoots and roots, further confirmed by visualizing GFP. […] (Experiment alias: SF-23-SP-24545; variety: F75400).

The subject of assay [5] is sunflower explants from 1-day imbibed seeds. As to the kind of experiment: Transformation efficiency with different concentration of TDZ in infection medium (Protocol V1). The following applies: for # of TaqMan Positive Events / TF: variety F75400, vector 24545. The method, then:
Agrobacterium from storage at −80° C. were streaked to YP (Yeast Peptone) medium with 100 mg/L spectinomycin and 50 mg/L kanamycin at least 3 days before infection. They were re-streaked to a new YP medium plate with some concentrations of spectinomycin and kanamycin 1 day before infection. The Agrobacterium were then collected and re-suspended in infection liquid medium (containing MS basal salts and B5 vitamins, sucrose 20 g/L, glucose 10 g/L, MES, 4 g/L, zeatin riboside 2 mg/L, 3-10 mg/L TDZ, 80 mg/L acetosyringone (AS), 150 mg/L dithiothreitol (DTT), pH=5.5). The concentration of the Agrobacterium was adjusted until OD660=0.6.
One cotyledon of the split germinated seeds was removed with a scalpel to expose the shoot apex with its two primary leaves. The two primary leaves were completely removed to expose the apical meristem and the apical region was gently wounded with the sharp end of a scalpel. The resultant explants were then placed in an Agrobacterium suspension and add 1/1000 10% F68; the suspension was then placed under vacuum at 800-900-mbar for 5-30 min followed by sonication at 45 kHz for 30-60s with gentle shaking. The explants were inoculated for 2-3 hours with the Agrobacterium with 50-80 rpm shaking.
After inoculation in (3), the Agrobacterium suspension was removed, and the explants were then placed onto a piece of filter paper in a petri dish which prewetted by 0.5 ml co-cultivation media (MS basal salts and vitamins, MS iron, zeatin 1 mg/L, sucrose 10 g/L, glucose 5 g/L, MES 2 g/L, acetosyringone 20 mg/L, silver nitrate 0.5 mg/L) with the adaxial side up. One side of the filter paper was covered, and the petri dish was sealed with parafilm. Approximately 10~20 explants were placed per petri dish. The explant and Agrobacterium were co-cultured for 4 days in low-illumination condition: PAR (photosynthetically active radiation) 40 μmol m−2 s−1 with 16/8 light/dark condition. The plate containing explants was covered with a steel tray in an incubator (PERVICAL® Scientific Chambers, Perry, IA). These conditions were chosen to increase infection and prevent embryo deterioration. The explants were then co-cultured at 22° C. in the dark for 3-6 days in growth chamber.
After co-culture, the explants were transferred onto SFR1 medium for shoot regeneration (Gamborg B5 basal salts and B5 vitamins, MS Iron 200×, sucrose 20 g/L, MES 1 g/L, timentin 150 mg/L, carbenicillin 150 mg/L, agar 7.5 g/L, lipoic acid-50 mM, BAP 1 mg/L). The SFR1 medium also contained a selection agent (i.e., spectinomycin 50-150 mg/L). The explants were allowed to culture on SFR1 media in the dark at 25° C. for 3-6 days, and then grown under light (16/8 light/dark) at 25° C. for 9-14 days. FIGS. 6A-D show formation of the primary shoots with GFP expression.
Different concentrations of TDZ in the infection medium were tested to assess if TDZ concentration impacts transformation (Experiment alias: SF-52-SP-24545, SF-66-SP-24545, SF-81-SP-24545; variety: F75400). The process of transformation with explants from 1-day imbibed seeds was as described above. TDZ was added in the infection medium during the infection process for 2-4 hours. A TDZ concentration of 3-10 mg/L was used.
Background: Quantitative PCR measures a nucleic acid by following its amplification.

[6] abbreviates: spectinomycin 100 mg/L in selection medium, SF23A, 89 explants.
Where [7] appears, read: spectinomycin 200 mg/L in selection medium, SF23B, 67 explants.
Setting [8] is: spectinomycin 300 mg/L in selection medium, SF23C, 61 explants.
Where [9] appears, read: spectinomycin 500 mg/L in selection medium, SF23D, 68 explants.
[10] abbreviates: spectinomycin 800 mg/L in selection medium, SF23E, 70 explants.
Where [11] appears, read: TDZ 3 mg/L in infection medium, 65 explants.
Where [12] appears, read: TDZ 4 mg/L in infection medium, 49 explants.
The mark [13] stands for this setting: TDZ 8 mg/L in infection medium, 42 explants.
[14] abbreviates: TDZ 10 mg/L in infection medium, 37 explants.

Turning to `c1ccc(CNc2ncnc3nc[nH]c23)cc1` [BAP, 6-benzylaminopurine], in the assay on sunflower explants [1], the No. resistant shoot came to 6, the “# of Resistant plants with GFP” value is 5, the “Rate of resistant plants with GFP (%)” value worked out at 7% and the Resistant shoot rate is on record as 8%. Moreover, in assay [2], the “Shoot induction rate (%)” value is on record as 2%.

On to `CN[C@@H]1[C@H](O)[C@H](NC)[C@H]2O[C@@]3(O)C(=O)C[C@@H](C)O[C@H]3O[C@@H]2[C@H]1O` [Spectinomycin, spectinomycin], for which the “transformation frequency (TF)” value with sunflower explants [3] is 8.2%. The “Generation of resistant shoots” value with sunflower explants [4] (all spectinomycin concentrations from 100 mg/L to 800 mg/L) is “generated resistant shoots”. Also, the “# of Resistant plants with GFP” value in the assay with sunflower explants [4] (setting [6]) is recorded as 10; in the assay on sunflower explants [4] (setting [7]) it was 6; in the assay on sunflower explants [4] (setting [8]) it was 2; with sunflower explants [4] (setting [9]), 2; in the assay with sunflower explants [4] (setting [10]), 1. Also, the “Rate of resistant plants with GFP (%)” value with sunflower explants [4] (setting [6]) was determined as 11%; in the assay on sunflower explants [4] (setting [7]), 9%; in the assay with sunflower explants [4] (setting [8]), 3%; with sunflower explants [4] (setting [9]) it was 3%; with sunflower explants [4] (setting [10]) it was 1%. The “Rooting rate (%)” value with sunflower explants [4] (setting [6]) is on record as 66%; in the assay with sunflower explants [4] (setting [7]) it was 36%; in the assay with sunflower explants [4] (setting [8]) it was 30%; in the assay with sunflower explants [4] (setting [9]), 18%; with sunflower explants [4] (setting [10]), 9%. Moreover, the “Shooting Rate (%)” value worked out at 40% in the assay with sunflower explants [4] (setting [6]); 18% in the assay with sunflower explants [4] (setting [7]); 16% with sunflower explants [4] (setting [8]); 10% in the assay with sunflower explants [4] (setting [9]); 9% in the assay on sunflower explants [4] (setting [10]).

For `O=C(Nc1ccccc1)Nc1cnns1` [TDZ, 1-phenyl-3-(1,2,3-thiadiazol-5-yl)urea], in the assay with sunflower explants [1], the No. resistant shoot was 7, the “# of Resistant plants with GFP” value worked out at 5, the “Rate of resistant plants with GFP (%)” value is listed as 7% and the Resistant shoot rate was determined as 10%. Also, in assay [5] (setting [11]), the “# of TaqMan Positive Events” value was determined as 1 and the TF is 1.5%. Also, in assay [5] (setting [12]), the “# of TaqMan Positive Events” value is listed as 4 and the TF was determined as 8.2%. In addition, in assay [5] (setting [13]), the “# of TaqMan Positive Events” value is on record as 3 and the TF was 7.1%. Further, in assay [5] (setting [14]), the “# of TaqMan Positive Events” value is listed as 1 and the TF stood at 2.7%. Further, the “Effect on shoot induction rate and transformation efficiency” value in assay [5] (TDZ 3-10 mg/L in infection medium for 2-4 hours) is “significantly improve shoot induction rate and transformation efficiency”.

As for `COC(=O)c1ccccc1CS(=O)(=O)NC(=O)Nc1nc(OC)cc(OC)n1` [bensulfuron-methyl], the “transformation frequency (TF)” value in the assay on sunflower explants [3] was found to be 3.6%.
